Results published in patent US20100166826A1, “BIODEGRADABLE INTRAVAGINAL DEVICES FOR DELIVERY OF THERAPEUTICS” (University of Uath Research Foundation, priority 2007, published 2010).

Assay: release of TMC120 from degradable polyurethane (FIG. 5)
Type: physicochemical
Conditions: period of one month; from degradable polyurethane made from terathane-co-(caprolactone), 4,4′-methylenebis-cyclohexane diisocyanate and 1,4-butanediol

## Cc1cc(C)c(Nc2ccnc(Nc3ccc(C#N)cc3)n2)c(C)c1 [TMC120, 4-[4-(mesitylamino)pyrimidin-2-ylamino)-benzonitrile]
  release profile of TMC120: sustained release profile
